In test [1] the test system is TRPM-2, ODC, AR and ERα expression. Particulars: in vivo; cited from earlier work.
The subject of another test is C3 expression. As to conditions: rat, in vivo; cited from earlier work.
Test [2] relates to ERβ-expressing BLA-to-NAc neurons. In words: cFos immunofluorescence of ERβ projections to the NAc after E2 and SSDS. The test is classed as in vivo, mouse.

Molecules are shown by their SMILES.

Turning to `C[C@]12CC[C@@H]3c4ccc(O)cc4CC[C@H]3[C@@H]1CC[C@@H]2O` [Example E2, 17β-Estradiol], the “expression of TRPM-2, ODC, AR and ERα in the prostate gland” value in test [1] is recorded as “decreases in the expression”. For the same compound, in the test with C3 expression, the “uterus C3 expression” value is “increases C3 expression”. The “activation of ERβ-expressing BLA-to-NAc neurons (c-Fos)” value in test [2] (orchiectomized mice, acute treatment prior to SSDS) is “activated at a significantly higher degree”. In test [2] (prefrontal, cingulate and insular cortex projections), the “activation of the other strong ERβ-projections to the NAc (c-Fos)” value is “activation of any of the other strong ERβ-projections to the NAc in response to E2 was observed”.
